Source: patent US20110053900A1, “PROGESTERONE ANTAGONISTS SUCH AS CDB-4124 IN THE TREATMENT OF BREAST CANCER” (Repros Therapeutics inc, priority 2008, published 2011)
Marks after values point to notes of the source that are not given here.

Experiments:
[1] = system: DMBA-induced tumors of the rat mammary gland; assay: DMBA-induced breast tumors: tumor number and tumor type at necropsy; format: in vivo; details: for ACA + PCA per rat / ACA per rat / FA/AF no. / Incidence of tumors (%) / Incidence of tumors (rats with tumors/rats) / PCA per rat: 28 days
Procedure: (§1) To induce breast tumors, Sprague-Dawley female rats were given 10 mg/kg body weight of DMBA at 50 days of age. One group of 14 rats (Group 2) received sesame oil at 50 days of age instead of DMBA to serve as the no-DMBA controls. Animals were weighed and palpated weekly along the milk line for any sign of lesions or swellings. Tumor nodules were noted and measured weekly in two dimensions with calipers. When tumors grew to a size of 10-12 mm in any dimension, the individual animal was randomized into one of 14 groups. Tumors appeared as soon as 39 days after oral gavage and as late as 194 days (latter individual not included in study). The mean latency period for tumor appearance was 106±30 days.
(§2) Animals were treated for 28 days on the following schedule. Group 1 received daily subcutaneous (s.c.) injections of vehicle (10% ethanol in sesame oil). Group 2 (no DMBA control group-no tumors expected) received vehicle on a schedule decided beforehand to simulate initiation of treatment over a three-month time period. […] Groups 5 through 9 received 20 mg/kg, 10 mg/kg, 2 mg/kg, 1 mg/kg and 0.1 mg/kg of CDB-4124, respectively. Groups 10 through 14 mirrored the treatment given 5 through 9 except that 10 mg/kg of micronized progesterone was also added as a component to compositions for injections.
(§3) Animals were sacrificed 3-5 days after the end of the 28-day treatment period, blood was drawn, and tumors were removed, weighed, measured, inspected, and portions frozen and/or placed in 10% phosphate buffered formalin for histopathology. The tissue samples were cut and stained with hematoxylin and eosin and were evaluated for histopathological classification.
Histologically, four types of tumors were identified (Table 2): adenocarcinomas (ACAs), papillary carcinomas (PCAs), a fibrosarcoma, and fibroadenomas or adenofibromas (FA or AF), the latter two tumor types were not considered to represent frank malignancies.

[2] = system: DMBA-induced tumors of the rat mammary gland; assay: DMBA-induced breast tumors: tumor progression (growth pattern); format: in vivo; details: 10 mg/kg
Procedure: as §1, §2
In order to evaluate the effects of CDB-4124, RU486 and progesterone on tumor development and progression, growth kinetics and tumor size were monitored during the treatment period. Individual tumors from animals with tumors in the study were measured weekly in two dimensions with calipers. The data is corrected to exclude the non-malignant FA/AF tumor types. Tumors that increased in cross-sectional area by at least 33% over the 28-day inspection period were considered to be growing (FIG. 1, black boxes). Those that decreased by approximately 33% were considered to be regressing (FIG. 1, white boxes). Others were considered to be static (FIG. 1, gray boxes).

[3] = system: DMBA-induced tumors of the rat mammary gland; assay: DMBA-induced breast tumors: tumor number, size and tumor burden at necropsy; format: in vivo; details: for Tumor Burden / Tumor Weight mean / Tumor Weight median / Number of Tumors: 28 days; for Number of Tumors: FA/AF excluded; for lowering of tumor burden and median tumor sizes: 10 mg/kg, versus control
Procedure: as §1, §2, §3
The results in Table 3 are those for ACA, PCA and mixed ACA/PCA, but the FA or AF tumors are excluded.

[4] = system: rat tumors (proliferation marker Ki-67); assay: Tumor proliferation by Ki-67 immunohistochemistry; format: in vivo; details: 10 mg/kg
Text: In order to assess the effects of progestins and anti-progestins on cell proliferation, tissue sections derived from 46 individual rat tumors from treated an control animals were examined by measuring expression of the proliferation marker Ki-67 using the Ki-67 antibody (NeoMarkers, Fremont, Calif.) and immunohistochemistry. Despite the reduction in size of many tumors in Groups 3 and 6 following treatment in Groups 3 and 6 making them too small to be re-cut, 7-12 ACAs from Groups 1, 3, 4, 6 and 11 were re-cut. The results of proliferation experiments, in which proliferation was measured as a percentage of cells expressing Ki-67, are summarized in Table 4: […]

rat tumors = assay: Apoptosis in tumors; format: in vivo; details: 10 mg/kg
Procedure: Apoptosis was evaluated in the same tumors by an apoptosis hybridization kit (Oncor, Gaithersburg, Md.). The cells in apoptosis were evaluated in the peripheral areas of the tumors and far from necrosis. At least 1,000 cells per tumor section were evaluated.

[5] = Serum progesterone by ELISA; format: in vivo, rat; details: for Serum Progesterone, Before TX (mean): before treatment; for Serum Progesterone, During TX (mean): after 21 days of treatment; for Serum Progesterone, After TX (mean): at sacrifice 2-4 days after the last s.c. injection
Procedure: (§4) The animals were assessed three times for their levels of progesterone: initially, when they were about to go on treatment; a second time after 21 days of treatment; and finally after treatment at sacrifice which was 2-4 days after the last s.c. injection. All blood samples were taken by heart puncture; serum was prepared and held frozen at −40° C. The levels of the steroid hormones progesterone, cortisol, and corticosterone were determined by ELISA.
(§5) The concentrations of steroid hormones were determined three times during the study: before the beginning of treatments, after 21 days of treatment and finally after treatment at sacrifice which was 2-4 days after the last s.c. injection. All samples were taken by heart puncture. Serum was obtained and held frozen at −40° C. The levels of steroid hormones were determined by ELISA.

Serum cortisol by ELISA = format: in vivo, rat; details: 10 mg/kg, 21 days of dosing
Procedure: as §4, §5

T47Darom cells = assay: Crystal violet cell proliferation assay in aromatase-overexpressing T47D cells; format: cell-based; details: Homo sapiens, 96 h, 4 μM alone, 4 days
Text: Untreated cells were used as a control. The crystal violet assay was used to measure cell proliferation. The dye in this assay, crystal violet, stains DNA. Upon solubilization, the amount of dye taken up by the cells can be quantitated in a spectrophotometer.

## CC#C[C@]1(O)CC[C@H]2[C@@H]3CCC4=CC(=O)CCC4=C3[C@@H](c3ccc(N(C)C)cc3)C[C@@]21C [RU 486, mifepristone, reference compound]
[1]; 10 mg/kg s.c. daily
  ACA + PCA per rat: 2.00
  ACA per rat: 2.08
  FA/AF no.: 1
  Incidence of tumors (%): (93) %
  Incidence of tumors (rats with tumors/rats): 13/14
  PCA per rat: 0.08
[2]; compared to the controls
  effect on tumor growth pattern (in words): apparent increase in the proportion of regressing tumors
[3]; 10 mg/kg s.c. daily
  Tumor Burden: 2.47 g/rat
  Tumor Weight mean: 1.19 g
  Tumor Weight median: 0.16 g
  Number of Tumors: 27
[3]
  lowering of tumor burden and median tumor sizes: 5 fold
[4]
  Proliferating tumor cells by Ki-67, % cells positive: 12.9 ± 7.0%
Rat tumors
  Apoptosis, % cells positive: 3.34 ± 2.57%
[5]; 10 mg/kg group
  Serum Progesterone, Before TX (mean): 58 ng/mL
[5]; 10 mg/kg
  Serum Progesterone, During TX (mean): 72* ng/ml
  Serum Progesterone, After TX (mean): 52 ng/mL
Serum cortisol by ELISA
  serum cortisol versus control group (in words): no significant difference in the levels of cortisol

## COCC(=O)[C@@]1(OC(C)=O)CC[C@H]2[C@@H]3CCC4=CC(=O)CCC4=C3[C@@H](c3ccc(N(C)C)cc3)C[C@@]21C [CDB-4124, 21-methoxy-17α-acetoxy-11β-(4 N,N-dimethylaminophenyl)-19-norpregna-4,9-diene-3,20-dione]
[1]; 0.1 mg/kg s.c. daily
  ACA + PCA per rat: 2.25
  ACA per rat: 1.17
  FA/AF no.: 3
  Incidence of tumors (%): (100) %
  Incidence of tumors (rats with tumors/rats): 12/12
  PCA per rat: 0.83
[1]; 1 mg/kg s.c. daily
  ACA + PCA per rat: 1.78
  ACA per rat: 1.67
  FA/AF no.: 2
  Incidence of tumors (%): (82) %
  Incidence of tumors (rats with tumors/rats): 9/11
  PCA per rat: 0.11
[1]; 2 mg/kg s.c. daily
  ACA + PCA per rat: 1.55
  ACA per rat: 1.45
  FA/AF no.: 2
  Incidence of tumors (%): (92) %
  Incidence of tumors (rats with tumors/rats): 11/12
  PCA per rat: 0.09
[1]; 10 mg/kg s.c. daily
  ACA + PCA per rat: 1.70
  ACA per rat: 1.5
  FA/AF no.: 1
  Incidence of tumors (%): (91) %
  Incidence of tumors (rats with tumors/rats): 10/11
  PCA per rat: 0.2
[1]; 20 mg/kg s.c. daily
  ACA + PCA per rat: 1.38
  ACA per rat: 1.31
  FA/AF no.: 3
  Incidence of tumors (%): (100) %
  Incidence of tumors (rats with tumors/rats): 13/13
  PCA per rat: 0.08
[1]; 20, 10, 2, 1 mg/kg/day
  average multiplicity across the highest four treatment groups: 1.58 tumors per rat
[2]; decrease of cross-sectional area by about 33% over 28 days
  proportion of tumors regressing: 70%
[3]; 0.1 mg/kg s.c. daily
  Tumor Burden: 5.1 g/rat
  Tumor Weight mean: 2.26 g
  Tumor Weight median: 0.17 g
  Number of Tumors: 29
[3]; 1 mg/kg s.c. daily
  Tumor Burden: 0.94 g/rat
  Tumor Weight mean: 0.53 g
  Tumor Weight median: 0.17 g
  Number of Tumors: 16
[3]; 2 mg/kg s.c. daily
  Tumor Burden: 4.61 g/rat
  Tumor Weight mean: 2.98 g
  Tumor Weight median: 0.09 g
  Number of Tumors: 17
[3]; 10 mg/kg s.c. daily
  Tumor Burden: 0.48 g/rat
  Tumor Weight mean: 0.26 g
  Tumor Weight median: 0.075 g
  Number of Tumors: 18
[3]
  lowering of tumor burden and median tumor sizes: 10 fold
[3]; 20 mg/kg s.c. daily
  Tumor Burden: 4.71 g/rat
  Tumor Weight mean: 3.4 g
  Tumor Weight median: 0.125 g
  Number of Tumors: 20
[4]
  Proliferating tumor cells by Ki-67, % cells positive: 5.1 ± 4.2%
Rat tumors
  Apoptosis, % cells positive: 3.84 ± 3.10%
[5]; 0.1 mg/kg group
  Serum Progesterone, Before TX (mean): 54 ng/mL
[5]; 0.1 mg/kg
  Serum Progesterone, During TX (mean): 53 ng/mL
  Serum Progesterone, After TX (mean): 53 ng/mL
[5]; 1 mg/kg group
  Serum Progesterone, Before TX (mean): 64 ng/mL
[5]; 1 mg/kg
  Serum Progesterone, During TX (mean): 47 ng/mL
  Serum Progesterone, After TX (mean): 42 ng/mL
[5]; 2 mg/kg group
  Serum Progesterone, Before TX (mean): 59 ng/mL
[5]; 2 mg/kg
  Serum Progesterone, During TX (mean): 74* ng/ml
  Serum Progesterone, After TX (mean): 56 ng/mL
[5]; 10 mg/kg group
  Serum Progesterone, Before TX (mean): 52 ng/mL
[5]; 10 mg/kg
  Serum Progesterone, During TX (mean): 77* ng/ml
  Serum Progesterone, After TX (mean): 43 ng/mL
[5]; 20 mg/kg group
  Serum Progesterone, Before TX (mean): 61 ng/mL
[5]; 20 mg/kg
  Serum Progesterone, During TX (mean): 96* ng/ml
  Serum Progesterone, After TX (mean): 58 ng/mL
Serum cortisol by ELISA
  serum cortisol versus control group (in words): significantly higher levels of serum cortisol
T47Darom cells
  inhibition at 4 µM: < 30%
